Reference: US8796428B2, “Erk1/2 posphorylation site specific antibody” (Julius-Maximilians-Universitaet Wuerzburg, priority 2008, dated 2014)

Key:
Gαq/11 = assay: Detection of tyrosine phosphorylated Gαq/11 in neonatal cardiomyocytes; format: cell-based, rat; details: 20 ng ml^−1, 10 min
Method: (§1) The inventors assessed phosphorylation of Gαq/11 by immunoprecipitation of Gαq/11 from lysates of neonatal cardiomyocytes without or with neuregulin1-β1 treatment (20 ng ml^−1, 10 min) using Gαq/11-specific antibodies (sc-392 AC, Santa Cruz) followed by detection of phosphotyrosine and immunoprecipitated Gαq/11 by immunoblot analyses. The inventors prepared the lysates as described above.

[1] = test system: Gβγ interaction with Raf1 and Erk1/2; assay: Co-immunoprecipitation of Gβγ with Raf1 and Erk1/2 in neonatal rat cardiomyocytes; format: cell-based; details: angiotensinII 100 nM 5 min, carbachol 300 μM 10 min, neuregulin 20 ng ml^−1 10 min
Method: (§2) The inventors prepared cell lysates and tissue lysates using lysis buffer (0.5% (v/v) NP-40, 150 mM NaCl, 25 mM Na4P2O7, 50 mM β-glycerol phosphate disodium salt, 2 mM EDTA, 2 mM EGTA, 25 mM Tris, pH 8.0, 10% (v/v) glycerol, 10 μg ml^−1 soybean trypsin inhibitor, 1 mM benzamidine, 1 mM PMSF, 50 mM NaF, 0.1 mM Na3VO4, 0.002% (w/v) NaN3) similarly as described (Lorenz et al., 2003). The inventors determined the interaction of Gβγ with endogenous Raf1, ERK1/2, HA-tagged Raf1 or HA-tagged Erk2 constructs by immunoprecipitation with the respective antibodies (as indicated in the figures). After immunoprecipitation, the inventors detected co-immunoprecipitated proteins in immunoblot analyses using the respective antibodies (as indicated in the figures). Before lysis, the inventors incubated adult or neonatal cardiomyocytes with or without agonist as indicated (angiotensinII, 100 nM, 5 min or 24 h; carbachol, 300 μM, 10 min or 36 h; neuregulin1-β1, 20 ng ml^−1, 10 min or 24 h; phenylephrine, 35 μM, 5 min or 48 h). HEK293-cells were cultured in the absence or presence of carbachol (100 μM, 6 min) or UK14304 (1 μM, 10 min) before lysis. […]

Erk1/2 = assay: Immunoblot of Thr188-phosphorylation of Erk1/2 in cardiomyocytes; format: cell-based; details: 20 ng ml^−1
Method: as §2, with “[…];” for “neuregulin1-β1, 20 ng ml^−1, 10 min or 24 h;”

Mek = assay: Determination of total inositol phosphates in HEK293-cells; format: cell-based; details: carbachol 50 μM, 15 min
Method: For determination of total inositol phosphates, the inventors transfected HEK293-cells with the indicated Erk2-constructs. After labeling of the cells with myo-[2-^3H]-inositol (1 mCi ml^−1) in inositol-free DMEM for 24 h, the inventors incubated the cells in incubation buffer (137 mM NaCl, 5 mM KCl, 10 mM LiCl, 1 mM CaCl2, 1 mM MgCl2, 10 mM HEPES, […]) for 15 min. The inventors extracted the inositol phosphates by addition of HClO4 (20%) before neutralizing the extract with KOH (1 M), removing the precipitates by centrifugation and applying the supernatants to anion exchange columns (DowexAG1×8, Biorad). The inventors then eluted total inositol phosphates by HCl (1 M) and measured the incorporated radioactivity by scintillation counting.

Mek1/2 = assay: Co-immunoprecipitation of HA-Raf1 with Gβ in HEK293 cells; format: cell-based; details: PD98059 50 μM, CCH, 5 min
Method: as §2, with “[…] The inventors prepared ventricular tissue from mouse hearts derived from male 129SvEv (FIG. 1g,h), FVB/N wild-type (WT) or Erk2^T188-transgenic mice (1188T, T188D, T188S, T188A) (FVB/N background) without or after transverse aortic constriction (TAC, see Fig. legends for the duration of TAC) or carbachol-infusion. Control animals” for “HEK293-cells”, “strain-, age- and gender-matched.” for “cultured in the absence or presence of carbachol (100 μM, 6 min) or UK14304 (1 μM, 10 min) before lysis.”

Src-kinase = assay: Neuregulin-induced hypertrophic effects in neonatal cardiomyocytes with Src-kinase inhibitor; format: cell-based, rat
Method: as §1
The inventors measured protein synthesis rates in isolated cardiomyocytes by [^3H]isoleucine incorporation. The inventors seeded transfected cardiomyocytes on 24-well plates in MEM supplemented with bromodeoxyuridine (25 mg l^−1), cobalamin (2 mg l^−1), NaHCO3 (350 mg l^−1), penicillin (100 U ml^−1), streptomycin (100 μg ml^−1) and 5% (v/v) fetal calf serum. After 24 h, the inventors reduced the serum concentration to 1% for 1 day followed by fasting in serum-free medium for 24-48 h. Thereafter, the inventors labeled the cells with [^3H]isoleucine (1 μCi ml^−1) for 24-48 h in the absence or presence of 100 nM angiotensinII, 300 μM carbachol, 10 ng ml^−1 neuregulin1-β1 or 35 μM (R)-(−)-phenylephrine as indicated. The inventors measured radioactivity incorporated into the TCA (trichloroacetic acid)-precipitable material by scintillation counting.

neuregulin1-β1
phosphorylation of Gαq/11 at Tyr356 (Gαq/11): triggered
co-immunoprecipitation of Gβγ with both Raf1 and Erk1/2 [1]: permitted
Thr188-phosphorylation of Erk1/2 (Erk1/2): induced

COc1cccc(-c2cc(=O)c3ccccc3o2)c1N [PD98059]
carbachol-stimulated inositol phosphate signaling compared to control cells (Mek): enhanced
carbachol-stimulated interaction of HA-Raf1 with Gβ (Mek1/2): suppressed

angiotensinII (DRVYIHPF; Angiotensin-2; UniProt P01019 25-32, looked up) [triggers hypertrophy via Gq-coupled AT1-receptors]
co-immunoprecipitation of Gβγ with both Raf1 and Erk1/2 [1]: markedly enhanced

CC(C)(C)n1nc(-c2ccc(Cl)cc2)c2c(N)ncnc21 [PP2]
effect on neuregulin-induced effects (Gβγ co-immunoprecipitation, Gαq/11 phosphorylation, protein synthesis) (Src-kinase): blocked
